Measured values published in BigSolDB 2.1.

CC1=NN(c2ccc(C)cc2)C(=O)C1
Conditions	solubility (mole fraction)
in 1,4-dioxane, 283.15 K	0.0337
in 1,4-dioxane, 285.65 K	0.0367
in 1,4-dioxane, 288.15 K	0.0399
in 1,4-dioxane, 290.65 K	0.0432
in 1,4-dioxane, 293.15 K	0.047
in 1,4-dioxane, 295.65 K	0.0507
in 1,4-dioxane, 298.15 K	0.0549
in 1,4-dioxane, 300.65 K	0.0591
in 1,4-dioxane, 303.15 K	0.0638
in 1,4-dioxane, 305.65 K	0.0683
in 1,4-dioxane, 308.15 K	0.0737
in 1,4-dioxane, 310.65 K	0.0791
in 1,4-dioxane, 313.15 K	0.0849
in acetonitrile, 278.15 K	0.00534
in acetonitrile, 280.65 K	0.00596
in acetonitrile, 283.15 K	0.00668
in acetonitrile, 285.65 K	0.00746
in acetonitrile, 288.15 K	0.0083
in acetonitrile, 290.65 K	0.00927
in acetonitrile, 293.15 K	0.0104
in acetonitrile, 295.65 K	0.0115
in acetonitrile, 298.15 K	0.0128
in acetonitrile, 300.65 K	0.0142
in acetonitrile, 303.15 K	0.0157
in acetonitrile, 305.65 K	0.0173
in acetonitrile, 308.15 K	0.0192
in acetonitrile, 310.65 K	0.0213
in acetonitrile, 313.15 K	0.0235
in cyclohexane, 283.15 K	0.000488
in cyclohexane, 285.65 K	0.000558
in cyclohexane, 288.15 K	0.000626
in cyclohexane, 290.65 K	0.000714
in cyclohexane, 293.15 K	0.000802
in cyclohexane, 295.65 K	0.000902
in cyclohexane, 298.15 K	0.00102
in cyclohexane, 300.65 K	0.00114
in cyclohexane, 303.15 K	0.00128
in cyclohexane, 305.65 K	0.00142
in cyclohexane, 308.15 K	0.00161
in cyclohexane, 310.65 K	0.00179
in cyclohexane, 313.15 K	0.002
in ethanol, 278.15 K	0.0146
in ethanol, 280.65 K	0.0161
in ethanol, 283.15 K	0.0176
in ethanol, 285.65 K	0.0191
in ethanol, 288.15 K	0.0209
in ethanol, 290.65 K	0.0229
in ethanol, 293.15 K	0.0248
in ethanol, 295.65 K	0.027
in ethanol, 298.15 K	0.0294
in ethanol, 300.65 K	0.0319
in ethanol, 303.15 K	0.0345
in ethanol, 305.65 K	0.0372
in ethanol, 308.15 K	0.0403
in ethanol, 310.65 K	0.0436
in ethanol, 313.15 K	0.0471
in ethyl acetate, 278.15 K	0.0171
in ethyl acetate, 280.65 K	0.0188
in ethyl acetate, 283.15 K	0.0207
in ethyl acetate, 285.65 K	0.0226
in ethyl acetate, 288.15 K	0.0247
in ethyl acetate, 290.65 K	0.0271
in ethyl acetate, 293.15 K	0.0294
in ethyl acetate, 295.65 K	0.032
in ethyl acetate, 298.15 K	0.0349
in ethyl acetate, 300.65 K	0.0378
in ethyl acetate, 303.15 K	0.041
in ethyl acetate, 305.65 K	0.0444
in ethyl acetate, 308.15 K	0.0481
in ethyl acetate, 310.65 K	0.052
in ethyl acetate, 313.15 K	0.0562
in ethylbenzene, 278.15 K	0.0109
in ethylbenzene, 280.65 K	0.012
in ethylbenzene, 283.15 K	0.0132
in ethylbenzene, 285.65 K	0.0146
in ethylbenzene, 288.15 K	0.016
in ethylbenzene, 290.65 K	0.0175
in ethylbenzene, 293.15 K	0.0193
in ethylbenzene, 295.65 K	0.0211
in ethylbenzene, 298.15 K	0.0231
in ethylbenzene, 300.65 K	0.0253
in ethylbenzene, 303.15 K	0.0276
in ethylbenzene, 305.65 K	0.0301
in ethylbenzene, 308.15 K	0.0327
in ethylbenzene, 310.65 K	0.0356
in ethylbenzene, 313.15 K	0.0387
in isopentanol, 278.15 K	0.0303
in isopentanol, 280.65 K	0.0335
in isopentanol, 283.15 K	0.037
in isopentanol, 285.65 K	0.041
in isopentanol, 288.15 K	0.0449
in isopentanol, 290.65 K	0.0492
in isopentanol, 293.15 K	0.0542
in isopentanol, 295.65 K	0.0593
in isopentanol, 298.15 K	0.0646
in isopentanol, 300.65 K	0.0705
in isopentanol, 303.15 K	0.0769
in isopentanol, 305.65 K	0.0835
in isopentanol, 308.15 K	0.0906
in isopentanol, 310.65 K	0.0982
in isopentanol, 313.15 K	0.106
in isopropanol, 278.15 K	0.0116
in isopropanol, 280.65 K	0.0127
in isopropanol, 283.15 K	0.014
in isopropanol, 285.65 K	0.0153
in isopropanol, 288.15 K	0.0168
in isopropanol, 290.65 K	0.0184
in isopropanol, 293.15 K	0.02
in isopropanol, 295.65 K	0.0218
in isopropanol, 298.15 K	0.0238
in isopropanol, 300.65 K	0.0259
in isopropanol, 303.15 K	0.0281
in isopropanol, 305.65 K	0.0305
in isopropanol, 308.15 K	0.033
in isopropanol, 310.65 K	0.0358
in isopropanol, 313.15 K	0.0387
in methanol, 278.15 K	0.0152
in methanol, 280.65 K	0.0168
in methanol, 283.15 K	0.0183
in methanol, 285.65 K	0.02
in methanol, 288.15 K	0.0221
in methanol, 290.65 K	0.024
in methanol, 293.15 K	0.0262
in methanol, 295.65 K	0.0287
in methanol, 298.15 K	0.0312
in methanol, 300.65 K	0.034
in methanol, 303.15 K	0.0367
in methanol, 305.65 K	0.0398
in methanol, 308.15 K	0.0432
in methanol, 310.65 K	0.0468
in methanol, 313.15 K	0.0506
in n-butanol, 278.15 K	0.0188
in n-butanol, 280.65 K	0.0206
in n-butanol, 283.15 K	0.0226
in n-butanol, 285.65 K	0.0247
in n-butanol, 288.15 K	0.0271
in n-butanol, 290.65 K	0.0294
in n-butanol, 293.15 K	0.032
in n-butanol, 295.65 K	0.0349
in n-butanol, 298.15 K	0.0377
in n-butanol, 300.65 K	0.041
in n-butanol, 303.15 K	0.0444
in n-butanol, 308.15 K	0.0518
in n-butanol, 310.65 K	0.056
in n-butanol, 313.15 K	0.0603
in n-propanol, 278.15 K	0.0177
in n-propanol, 280.65 K	0.0194
in n-propanol, 283.15 K	0.0213
in n-propanol, 285.65 K	0.0232
in n-propanol, 288.15 K	0.0254
in n-propanol, 290.65 K	0.0276
in n-propanol, 293.15 K	0.0301
in n-propanol, 295.65 K	0.0326
in n-propanol, 298.15 K	0.0353
in n-propanol, 300.65 K	0.0384
in n-propanol, 303.15 K	0.0414
in n-propanol, 305.65 K	0.0448
in n-propanol, 308.15 K	0.0483
in n-propanol, 310.65 K	0.0522
in n-propanol, 313.15 K	0.0561
in toluene, 278.15 K	0.00985
in toluene, 280.65 K	0.0109
in toluene, 283.15 K	0.012
in toluene, 285.65 K	0.0133
in toluene, 288.15 K	0.0147
in toluene, 290.65 K	0.0161
in toluene, 293.15 K	0.0176
in toluene, 295.65 K	0.0193
in toluene, 298.15 K	0.021
in toluene, 300.65 K	0.023
in toluene, 303.15 K	0.025
in toluene, 305.65 K	0.0273
in toluene, 308.15 K	0.0298
in toluene, 310.65 K	0.0323
in toluene, 313.15 K	0.0351
